Laboratory results taken from patent publication US20220030850A1, “CRYOPRESERVATIVE COMPOSITIONS AND METHODS” (REGENTS OF THE UNIVERSITY OF MINNESOTA, priority 2015, published 2022).

Legend:
[1] = test system: Jurkat cells; test: Raman microscopy cell penetration study of cryoprotectants; format: cell-based; details: for Penetration: Raman microscopy, at room temperature and at freezing temperatures; for location of cryoprotectant in Raman contrast image: Jurkat cells frozen in either glycerol or trehalose, FIG. 12
Protocol: Raman microscopy data provides an indication of the location of action of each cryopreservative. The images in FIG. 12 show Jurkat cells frozen in either glycerol (penetrating) or trehalose (non-penetrating).
These experiments were performed for most of the components described in the sections above both at room temperature and at freezing temperatures to assess whether penetration was temperature dependent.
Confocal Raman Microspectroscopy (CRM) measurements are conducted using Witec Confocal Raman Microscope System Alpha 300R (WITec, Wissenschaftliche Instrumente und Technologie GmbH, Ulm, Germany) with UHTS300 spectrometer and DV401 CCD detector. A wavelength of 532 nm Nd:YAG laser and 10 mW of power is used as excitation source. The laser is transferred to the microscopy in a singer fiber. A 100× air objective (NA 0.90; Nikon Instruments, Melville, N.Y.) is used for focusing the 532 nm excitation laser to the sample. Data collection and analysis are performed by Windows-based WitecControl_1.38 software.

[2] = test system: Jurkat cells; test: High throughput factorial screening with Linear Mixed Effects statistical analysis of recovery; format: cell-based; details: for correlation with recovery: statistical analysis, data not shown
Protocol: (§1) In another evaluation, cells were combined with factorial combinations of the components listed in Table 5, using one component from each category. Plates including cells and solutions were frozen at cooling rates of 1′C/min, 3′C/min, 5′C/min, or 10′C/min.
(§2) Recovery was calculated by dividing the number of live cells post thaw—calculated using a control curve correlating calcein-acetoxymethyl (AM) fluorescence to cell count—by the number of live cells seeded pre-freeze (AO/PI counts taken prior to freezing). Recovery was normalized by dividing by the DMSO recovery on each plate, then multiplying by a standard DMSO recovery for each cooling rate. This normalized recovery was used to compare samples between different plates and different cooling rates.
(§3) Statistical analysis of the data was performed using a Linear Effects Model. The model associated with best fit was determined using Bayesian Information Criteria. […] The ten best combinations for Jurkats are summarized in Table 6 below, while the eight best combinations for MSCs are summarized in Table 7.
High throughput factorial screening experiments were performed on a Biomek Beckman FX 96 liquid handling robot. Briefly, 12.5 μl of an array of additives were transferred to nine 96-well plates containing 12.5 μl of different sugar alcohols. Cells (25 μl) diluted in either a sugar (in a solution of NORMOSOL-R; Hospira, Inc., Lake Forest, L) or a NORMOSOL-R blank solution were transferred to these nine plates to give a final volume of 50 μl in each well. Cells suspended in […] in media were also included as a row of each plate to serve as normalization wells for plate-to-plate comparison.
When all plate volume transfers were complete, silicone plate covers were used to seal each plate, and plates were transferred to a controlled rate freezer (Kryo 10 Series III, Planer PLC, Middlesex, United Kingdom) and frozen at cooling rates ranging from 1° C./min to 10° C./min. The concentrations of components present in solution are listed in Table 11, and were selected based on values described in literature or solubility limits. Component concentrations were 0 if not listed in a solution.
Plate samples were also assessed for viability using fluorescence. Briefly, a solution of calcein-AM/propidium iodide was prepared and a volume of 50 μl was added to each sample well of experimental 96-well plates, producing a 1:1 dilution. Plates were protected from light and placed in an incubator for 30 minutes to allow for calcein-AM digestion. A fluorescent plate reader (Synergy HT, BioTek Instruments, Inc., Winooski, Vt.) was used to determine the fluorescence in each well, which was correlated to live and dead cell counts using a control curve.
Viability was calculated for all samples by dividing the number of live cells by the number of total cells. Recovery was calculated directly by dividing the number of live cells post thaw by the number of live cells pre-freeze. Recovery for 96-well plate samples was further normalized; each experimental sample recovery was divided by the DMSO recovery on the same plate, and then multiplied by the standard DMSO recovery for the cooling rate of each experiment.
To assess the importance of the four explanatory variables of interest (Sugar, Rate, Additive and Alcohol), without neglecting the variation between each batch and between each plate within the batches, we sought to find the best Linear Mixed Effects (LME) model. […]

[3] = test system: MSCs; test: as above; format: cell-based, human; details: for correlation with recovery: statistical analysis
Protocol: as §1, §2, §3
To assess the importance of the four explanatory variables of interest (Sugar, Rate, Additive and Alcohol), without neglecting the variation between each batch and between each plate within the batches, we sought to find the best Linear Mixed Effects (LME) model. With yi the i'th outcome of the response, Xi the corresponding values of the covariates, the LME model is defined as
To select the most fitting model, we performed backward elimination based on the Bayesian Information Criterion (BIC) starting with a model that includes all variables and second order interactions. Furthermore, we included two random variables, one to catch the effect of the batch, and one to catch the effect of each plate within the batch—i.e., the full model is: […]

[4] = molecular target: lysozyme (Gallus gallus, UniProt P00698); test: Differential scanning calorimetry, denaturation temperature of lysozyme in osmolyte solution; format: physicochemical; details: 1 mg/ml lysozyme in 20 mM HEPES buffer; single osmolytes 600 mM; heated at 1° C./min; pH 7.3
Sequence of lysozyme (P00698 19-147): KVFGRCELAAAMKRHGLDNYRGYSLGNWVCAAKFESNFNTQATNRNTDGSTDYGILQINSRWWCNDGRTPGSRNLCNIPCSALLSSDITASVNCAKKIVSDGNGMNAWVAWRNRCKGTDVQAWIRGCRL
Protocol: Lysozyme powder was dissolved into each solution reaching final concentration of 100 mg/ml and then refrigerated. Lysozyme in DPBS solution was used as control. For DSC measurements, experiment solution was made by dissolving osmolyte into 20 mM HEPES buffer and the concentration of osmolyte in each solution remained same as in DPBS solution. Lysozyme powder was dissolved into each solution reaching final concentration of 1 mg/ml and kept refrigerated. Lysozyme in HEPES buffer was used as control. The pH of solutions was 7.3 measured by Beckman 350 meter. Differential scanning calorimetry was performed on a differential scanning calorimeter (Q1000, TA Instruments, New Castle, Del.). Osmolyte solutions containing lysozyme were heated in order to determine the denaturation temperature of lysozyme. Experimental solutions were heated from room temperature to 90° C. at 1° C./min. Specific heat, Cp, was calculated from the heat flow data assuming Cp as a function of temperature were analyzed using OriginPro software (OriginLab Corp., Northampton, Mass.) to subtract curve baseline. The midpoint temperature, Tm, was obtained as the temperature corresponding to the maximum specific heat value from the baseline and the denaturation temperature was assumed to be Tm^32.

[5] = test system: Jurkat cells; test: 96-well plate freezing, post-thaw scaled raw recovery (calcein-AM/PI); format: cell-based; details: 150, 300, 600 mM total sugar; FIG. 8
Protocol: The first phase of this study involved using the DE algorithm to develop a three-component cryopreservation solution used at a single cooling rate (1° C./min). Three components (trehalose, glycerol, and ectoine (TGE)) were selected as components of the exemplary freezing medium used for preservation of Jurkat cells, a hematopoietic model cell type, based on pre-screening of multiple non-DMSO components. For this single cooling rate study, the DE algorithm was programmed to output 18 vector solutions per generation with a weight=0.85 and a crossover=1. Jurkat cells cryopreserved in 10% DMSO at a cooling rate of 1° C./min were used as a control.
Cooling rate influences cell survival, and the preferred cooling rate for a given application can depend, at least in part, on the composition of the freezing medium and the cell type being frozen. […] To assess both cooling rate and the composition of the solution, the DE algorithm was programmed to output 27 vector solutions per generation with weight=0.85 and a crossover=1. Solutions were separated into categories based on their DE algorithm defined cooling rate, and were frozen in batches at a cooling rate of […], 0.5° C./min, 1° C./min, 3° C./min, 5° C./min, or 10° C./min. Results were normalized and scaled raw recovery is reported, allowing results from all cooling rates and all generations to be compared directly. […]
After 96 well plates were thawed, calcein-acetoxymethyl (AM)/propidium iodide was added to each well and the wells were covered from light and placed in a 37° C. incubator for 30 minutes to allow the live cells to cleave calcein-AM. The plates were then analyzed for fluorescence on a plate reader. Raw fluorescence values were used to calculate the number of live and dead cells present in each well by correlating to a control curve of unfrozen cells. The live cell recovery was calculated by dividing the number of live cells present in thawed samples (calcein-AM plate reader fluorescence) by the number of live cells seeded pre-freeze (AO/PI counts). […]

[6] = statistical analysis of sugar and cooling rate

| Penetration [1] | SMILES | correlation with recovery [3] | further results |
| --- | --- | --- | --- |
| Yes | NCCS(=O)(=O)O [Taurine] | – | – |
| Yes | OC[C@@H](O)[C@@H](O)[C@H](O)[C@H](O)CO [Mannitol] | – | – |
| Yes | O=C(O)[C@@H]1CCCN1 [Proline] | negatively correlated | correlation with recovery [2]: negatively correlated |
| Yes | O=C(CO)[C@@H](O)[C@H](O)[C@H](O)CO [Fructose] | – | – |
| Yes | OCC(O)CO [Glycerol] | positively correlated | location of cryoprotectant in Raman contrast image [1]: present both inside the cell and in the super cooled liquid surrounding the cell |
| Yes | O[C@H]1[C@H](O)[C@@H](O)[C@H](O)[C@@H](O)[C@H]1O [Inositol] | – | – |
| Yes | C[C@H](N)C(=O)O [Alanine] | – | – |
| Semi* | OC[C@H]1O[C@H](O[C@H]2O[C@H](CO)[C@@H](O)[C@H](O)[C@H]2O)[C@H](O)[C@@H](O)[C@@H]1O [Trehalose] | – | recovery of Jurkat cells, sugar synergy study [5]: outperformed monosaccharides; location of cryoprotectant in Raman contrast image [1]: excluded from the cell; cooling rate at which cells performed better with the sugar [2, 6]: 5° C./min; cooling rate at which cells performed better with the sugar [3, 6]: 10° C./min |

Second part, the molecule before the results:

| SMILES | Penetration [1] | correlation with recovery [3] | further results |
| --- | --- | --- | --- |
| OC[C@@H](O)[C@@H](O)CO [erythritol] | – | negatively correlated | correlation with recovery [2]: negatively correlated |
| OC[C@@H](O)[C@@H](O)[C@H](O)[C@@H](O)CO [Sorbitol] | Yes | positively correlated | Denaturation temperature Tm of lysozyme [4]: 83.1 °C |
| OCCO [Ethylene glycol] | Yes | – | – |
| OC[C@@H](O)[C@@H](O)[C@@H](O)CO [ribitol] | – | negatively correlated | correlation with recovery [2]: negatively correlated |
| CC1=NCC[C@@H](C(=O)O)N1 [Ectoine] | Yes | – | Denaturation temperature Tm of lysozyme [4]: 79.6 °C |
| OC[C@@H](O)[C@H](O)[C@@H](O)CO [Xylitol] | Yes | – | – |
| CC(C)[C@H](N)C(=O)O [Valine] | Yes | negatively correlated | – |
